System: neutrophils activated by fMLP
Experiment: superoxide production from neutrophils activated by fMLP
Format: cell-based
Settings: Neutrophil; concentration giving 50% inhibition of fMLP-induced superoxide production compared to control response; human peripheral blood neutrophils, cytochalasin B priming, adenosine deaminase present, cytochrome C reduction readout
Protocol: This is evaluated by determining the compound profile in an assay where superoxide production was measured from neutrophils activated by fMLP. Neutrophils were isolated from human peripheral blood using dextran sedimentation followed by centrifugation through Ficoll-Hypaque solution. Any contaminating erythrocytes in the granulocyte pellet were removed by lysis with ice-cold distilled water. Superoxide production from the neutrophils was induced by fMLP in the presence of a priming concentration of cytochalasin B. Adenosine deaminase was included in the assay to remove any endogenously produced adenosine that might suppress superoxide production. The effect of the compound on the fMLP-induced response was monitored colorometrically from the reduction of cytochrome C within the assay buffer. The potency of the compounds was assessed by the concentration giving 50% inhibition (IC50) compared to the control response to fMLP.

IC50 [nM]	SMILES
< 100	CCNC(=O)[C@H]1O[C@@H](n2cnc3c(NCC(c4ccccc4)c4ccccc4)nc(C(=O)NCCNC(=O)NCCN4CCCCC4)nc32)[C@H](O)[C@@H]1O [Example 1, 6-[(2,2-Diphenylethyl)amino]-9-{(2R,3R,4S,5S)-5-[(ethylamino)carbonyl]-3,4-dihydroxytetrahydro-2-furanyl}-N-{2-[({[2-(1-piperidinyl)ethyl]amino}carbonyl)amino]ethyl}-9H-purine-2-carboxamide]
< 100	CCNC(=O)[C@H]1O[C@@H](n2cnc3c(NCC(c4ccccc4)c4ccccc4)nc(C(=O)NCCNC(=O)NCCN(C(C)C)C(C)C)nc32)[C@H](O)[C@@H]1O [Example 2]
< 100	O=C(NCCNC(=O)c1nc(NCC(c2ccccc2)c2ccccc2)c2ncn([C@@H]3O[C@H](CO)[C@@H](O)[C@H]3O)c2n1)NCCN1CCCCC1 [Example 3, 9-[(2R,3R,4S,5R)-3,4-Dihydroxy-5-(hydroxymethyl)tetrahydro-2-furanyl]-6-[(2,2-diphenylethyl)amino]-N-{2-[({[2-(1-piperidinyl)ethyl]amino}carbonyl)amino]ethyl}-9H-purine-2-carboxamide]
< 100	CC(C)N(CCNC(=O)NCCNC(=O)c1nc(NCC(c2ccccc2)c2ccccc2)c2ncn([C@@H]3O[C@H](CO)[C@@H](O)[C@H]3O)c2n1)C(C)C [Example 4]
< 100	CCNC(=O)[C@H]1O[C@@H](n2cnc3c(NCC(c4ccccc4)c4ccccc4)nc(C(=O)NCCNC(=O)NCCN4CCC(C(C)C)CC4)nc32)[C@H](O)[C@@H]1O [Example 5, 6-[(2,2-Diphenylethyl)amino]-9-{(2R,3R,4S,5S)-5-[(ethylamino)carbonyl]-3,4-dihydroxytetrahydro-2-furanyl}-N-{2-[({[2-(4-isopropyl-1-piperidinyl)ethyl]amino}carbonyl)amino]ethyl}-9H-purine-2-carboxamide]
< 100	CCNC(=O)[C@H]1O[C@@H](n2cnc3c(NCC(c4ccccc4)c4ccccc4)nc(C(=O)NCCNC(=O)NCCN(C(C)C)C4CCCC4)nc32)[C@H](O)[C@@H]1O [Example 6, N-(2-{[({2-[Cycopentyl(isopropyl)amino]ethyl}amino)carbonyl]amino}ethyl)-6-[(2,2-diphenylethyl)amino]-9-{(2R,3R,4S,5S)-5-[(ethylamino)carbonyl]-3,4-dihydroxytetrahydro-2-furanyl}-9H-purine-2-carboxamide]
< 100	CCNC(=O)[C@H]1O[C@@H](n2cnc3c(NCC(c4ccccc4)c4ccccc4)nc(C(=O)NCCNC(=O)NCCN(C(C)C)C4CCCCC4)nc32)[C@H](O)[C@@H]1O [Example 7, N-(2-{[({2-[Cyclohexyl(isopropyl)amino]ethyl}amino)carbonyl]amino}ethyl)-6-[(2,2-diphenylethyl)amino]-9-{(2R,3R,4S,5S)-5-[(ethylamino)carbonyl]-3,4-dihydroxytetrahydro-2-furanyl}-9H-purine-2carboxamide]
< 100	CCNC(=O)[C@H]1O[C@@H](n2cnc3c(NCC(c4ccccc4)c4ccccc4)nc(C(=O)NCCNC(=O)NC4CCN(c5ccccn5)CC4)nc32)[C@H](O)[C@@H]1O [Example 8, 6-[(2,2-Diphenylethyl)amino]-9-{(2R,3R,4S,5S)-5-[(ethylamino)carbonyl]-3,4-dihydroxytetrahydro-2-furanyl}-N-{2-[({[1-(2-pyridinyl)-4-piperidinyl]amino}carbonyl)amino]ethyl}-9H-purine-2-carboxamide]
< 100	CCCCN(CCCC)CCNC(=O)NCCNC(=O)c1nc(NCC(c2ccccc2)c2ccccc2)c2ncn([C@@H]3O[C@H](C(=O)NCC)[C@@H](O)[C@H]3O)c2n1 [Example 9]
< 100	CCNC(=O)[C@H]1O[C@@H](n2cnc3c(NCC(c4ccccc4)c4ccccc4)nc(C(=O)NCCNC(=O)NC4CCN(Cc5ccccc5)CC4)nc32)[C@H](O)[C@@H]1O [Example 10]
< 100	CCNC(=O)[C@H]1O[C@@H](n2cnc3c(NCC(c4ccccc4)c4ccccc4)nc(C(=O)NCCNC(=O)NCCN(Cc4ccccc4)C(C)C)nc32)[C@H](O)[C@@H]1O [Example 11]
< 100	CCNC(=O)[C@H]1O[C@@H](n2cnc3c(NCC(c4ccccc4)c4ccccc4)nc(C(=O)NCCNC(=O)NCC4CCN(Cc5ccccc5)CC4)nc32)[C@H](O)[C@@H]1O [Example 12]
< 100	CCNC(=O)[C@H]1O[C@@H](n2cnc3c(NCC(c4ccccc4)c4ccccc4)nc(C(=O)NCCNC(=O)NCc4ccccc4)nc32)[C@H](O)[C@@H]1O [Example 13]
< 100	CCNC(=O)[C@H]1O[C@@H](n2cnc3c(NCC(c4ccccc4)c4ccccc4)nc(C(=O)NCCNC(=O)NCCc4ccccc4)nc32)[C@H](O)[C@@H]1O [Example 14]
< 100	CCNC(=O)[C@H]1O[C@@H](n2cnc3c(NCC(c4ccccc4)c4ccccc4)nc(C(=O)NCCNC(=O)NC4CCCCC4)nc32)[C@H](O)[C@@H]1O [Example 15]
< 100	CCNC(=O)[C@H]1O[C@@H](n2cnc3c(NCC(c4ccccc4)c4ccccc4)nc(C(=O)NCCNC(=O)NCCN4CCc5ccccc5C4)nc32)[C@H](O)[C@@H]1O [Example 16]
< 100	CCNC(=O)[C@H]1O[C@@H](n2cnc3c(NCC(c4ccccc4)c4ccccc4)nc(C(=O)NCCCNC(=O)NCCN4CCCCC4)nc32)[C@H](O)[C@@H]1O [Example 18]

IC50 [nM]	SMILES
< 100	CCNC(=O)[C@H]1O[C@@H](n2cnc3c(NCC(c4ccccc4)c4ccccc4)nc(C(=O)NCCCNC(=O)NCCN(C(C)C)C(C)C)nc32)[C@H](O)[C@@H]1O [Example 19]
< 100	CCNC(=O)[C@H]1O[C@@H](n2cnc3c(NCC(c4ccccc4)c4ccccc4)nc(C(=O)N[C@H]4CC[C@H](NC(=O)NCCN5CCCCC5)CC4)nc32)[C@H](O)[C@@H]1O [Example 20]
< 100	CCNC(=O)[C@H]1O[C@@H](n2cnc3c(NCC(c4ccccc4)c4ccccc4)nc(C(=O)N[C@H]4CC[C@H](NC(=O)NCCN(C(C)C)C(C)C)CC4)nc32)[C@H](O)[C@@H]1O [Example 21]
< 100	CCNC(=O)[C@H]1O[C@@H](n2cnc3c(NCC(c4ccccc4)c4ccccc4)nc(C(=O)NC4CCN(C(=O)NCCN(C(C)C)C(C)C)CC4)nc32)[C@H](O)[C@@H]1O [Example 22]
< 100	CCNC(=O)[C@H]1O[C@@H](n2cnc3c(NCC(c4ccccc4)c4ccccc4)nc(C(=O)N[C@@H]4CCN(C(=O)NCCN(C(C)C)C(C)C)C4)nc32)[C@H](O)[C@@H]1O [Example 23]
< 100	CCNC(=O)[C@H]1O[C@@H](n2cnc3c(NCC(c4ccccc4)c4ccccc4)nc(C(=O)N[C@@H]4CCN(C(=O)NCc5ccccc5)C4)nc32)[C@H](O)[C@@H]1O [Example 24]
< 100	CCNC(=O)[C@H]1O[C@@H](n2cnc3c(NCC(c4ccccc4)c4ccccc4)nc(C(=O)N4CCC(NC(=O)NCc5ccccc5)CC4)nc32)[C@H](O)[C@@H]1O [Example 25]
< 100	CCNC(=O)[C@H]1O[C@@H](n2cnc3c(NCC(c4ccccc4)c4ccccc4)nc(C(=O)N[C@@H]4CCN(C(=O)NCCc5ccccc5)C4)nc32)[C@H](O)[C@@H]1O [Example 26]
< 100	CCNC(=O)[C@H]1O[C@@H](n2cnc3c(NCC(c4ccccc4)c4ccccc4)nc(C(=O)N[C@@H]4CCN(C(=O)NC5CCN(c6ccccn6)CC5)C4)nc32)[C@H](O)[C@@H]1O [Example 27]
< 100	CCNC(=O)[C@H]1O[C@@H](n2cnc3c(NCC(c4ccccc4)c4ccccc4)nc(C(=O)N4CC[C@@H](NC(=O)NCCN(C(C)C)C(C)C)C4)nc32)[C@H](O)[C@@H]1O [Example 28]
< 100	CCNC(=O)[C@H]1O[C@@H](n2cnc3c(NCC(c4ccccc4)c4ccccc4)nc(C(=O)N4CC[C@H](NC(=O)NCCN(C(C)C)C(C)C)C4)nc32)[C@H](O)[C@@H]1O [Example 29]
< 100	CCNC(=O)[C@H]1O[C@@H](n2cnc3c(NCC(c4cccc(C)c4)c4cccc(C)c4)nc(C(=O)NCCNC(=O)NCCN(C(C)C)C(C)C)nc32)[C@H](O)[C@@H]1O [Example 30, 6-{[2,2-Bis(3-methylphenyl)ethyl]amino}-N-{2-[({[2-(diisopropylamino)ethyl]amino}carbonyl)-amino]ethyl}-9-{(2R,3R,4S,5S)-5-[(ethylamino)carbonyl]-3,4-dihydroxytetrahydro-2-furanyl}-9H-purine-2-carboxamide]
< 100	CCNC(=O)[C@H]1O[C@@H](n2cnc3c(NCC(c4cccc(Cl)c4)c4cccc(Cl)c4)nc(C(=O)NCCNC(=O)NCCN(C(C)C)C(C)C)nc32)[C@H](O)[C@@H]1O [Example 31]
< 100	CCNC(=O)[C@H]1O[C@@H](n2cnc3c(NCC(c4cccc(Cl)c4)c4cccc(Cl)c4)nc(C(=O)NCCNC(=O)NCCN4CCCCC4)nc32)[C@H](O)[C@@H]1O [Example 32, 6-{[2,2-Bis(3-chlorophenyl)ethyl]amino}-9-{(2R,3R,4S,5S)-5-[(ethylamino)carbonyl]-3,4-dihydroxytetrahydro-2-furanyl}-N-{2-[({[2-(1-piperidinyl)ethyl]amino}carbonyl)amino]ethyl}-9H-purine-2-carboxamide]
< 100	CCNC(=O)[C@H]1O[C@@H](n2cnc3c(NCC(c4cccc(C)c4)c4cccc(C)c4)nc(C(=O)NCCNC(=O)NCCN4CCCCC4)nc32)[C@H](O)[C@@H]1O [Example 33]
< 100	CCNC(=O)[C@H]1O[C@@H](n2cnc3c(NCC(c4ccccc4)c4ccccc4)nc(C(=O)NCCNC(=O)NCc4ccc(C(=O)O)cc4)nc32)[C@H](O)[C@@H]1O [Example 34, 4-[({[(2-{[(6-[(2,2-diphenylethyl)amino]-9-{(2R,3R,4S,5S)-5-[(ethylamino)carbonyl]-3,4-dihydroxytetrahydro-2-furanyl}-9H-purine-2-yl)carbonyl]amino}ethyl)amino]carbonyl}-amino)methyl]benzoic acid]

Reference: patent US6753322B2, “2-aminocarbonyl-9H-purine derivatives” (Pfizer Inc, priority 2000, dated 2004)
